Experimental data published in paper PMC12566511, “The Evaluation of (1R,4R,7R,10R)-α,α′,α″,α‴-Tetramethyl-1,4,7,10-tetraazacyclododecane-1,4,7,10-tetraacetic Acid (DOTMA) as a Chelator for Zirconium-89” (Molecules, 2025).

Tests used:
[1] = Biodistribution studies in non-tumor-bearing, normal mice; assay type: in vivo, female NIH Swiss mice; conditions: for Biodistribution (%ID/g) Spleen / Biodistribution (%ID/g) Stomach / Biodistribution (%ID/g) Blood / Biodistribution (%ID/g) Bone / Biodistribution (%ID/g) Fat / Biodistribution (%ID/g) Heart / Biodistribution (%ID/g) Kidney / Biodistribution (%ID/g) Large intestine / Biodistribution (%ID/g) Liver / Biodistribution (%ID/g) Lung / Biodistribution (%ID/g) Muscle / Biodistribution (%ID/g) Pancreas / Biodistribution (%ID/g) Small intestine: tail vein, n = 6
Experimental: Female NIH Swiss mice (6–8 weeks old) were purchased from Inotiv, Lafayette, IN, USA. All animals were acclimated to a 12 h light/dark cycle and received food and water ad libitum for 5 days before any manipulations were performed. All animals were checked by veterinary staff daily to ensure well-being and proper environment and to monitor for signs of distress. Clinical signs of distress in laboratory rodents include decreased activity, pilo-erection, un-groomed appearance, excessive licking and scratching, self-mutilation, abnormal stance, hunched appearance, rapid or shallow respiration, grunting, dilated pupils, aggressiveness towards handler, high-pitched vocalizations, change in feeding activity, and attempts to separate from group. In the event of clinical distress, animals were euthanized after consulting the on-call veterinarian. To minimize suffering during the tail vain injection, animals were kept under deep isoflurane anesthesia. At the end point of the study, animals were anesthetized with isoflurane and were euthanized by cervical dislocation, which is consistent with the recommendations of the American Veterinary Medical Association Guidelines on Euthanasia.
Biodistribution studies were conducted using a modified literature procedure. Briefly, female NIH Swiss mice (6–8 weeks old, n = 6/cohort; 30 animals total) were injected with [^89Zr]Zr-DOTMA (0.55 MBq (15 μCi)/mouse) via the tail vein and sacrificed at 2, 4, 24, 48, and 72 h p.i. Organs and tissues of interest were excised, weighed, and counted on a gamma counter. The percent injected dose per gram (%ID/g) was calculated by comparison to a weighed, counted standard for each group.

[2] = In vitro serum stability study; assay type: in vitro ADME, human; conditions: for % Intact of [^89Zr]Zr-DOTMA (n = 3) Radio-ITLC / % Intact of [^89Zr]Zr-DOTMA (n = 3) Radio-SE-HPLC: human serum, 37 °C
Experimental: The in vitro serum stability was determined by adding 20 μL of [^89Zr]Zr-DOTMA (113–124 μCi, 4.2–4.6 MBq) to 500 μL of human serum. The solutions (n = 3) were incubated at 37 °C for 7 days and were analyzed daily for 1 week by radio-TLC using Varian ITLC-SA strips, 0.1 M EDTA (pH 5) as the mobile phase, and gamma counting. Samples were also analyzed at 1, 3, 5, and 7 days via size exclusion chromatography (SEC) using a Superdex 200 10/300 GL column (GE Healthcare Life Sciences, Piscataway, NJ, USA) and phosphate buffered saline (PBS) as an eluent with a flow rate of 0.5 mL/min. Fractions (0.5 mL per tube) were collected, and the activity in each fraction was measured in a gamma counter. The percent intact radiopharmaceutical was determined by […] in the chromatogram and multiplying by a factor of 100%.

SMILES: CC(C(=O)[O-])N1CCN(C(C)C(=O)[O-])CCN(C(C)C(=O)[O-])CCN(C(C)C(=O)[O-])CC1.[89Zr+4] (stereo not shown) [[^89Zr]Zr-DOTMA]
- Biodistribution (%ID/g) Spleen ([1]; 4 h p.i.): 0.076 ± 0.004 %ID/g
- Biodistribution (%ID/g) Stomach ([1]; 4 h p.i.): 0.013 ± 0.005 %ID/g
- Biodistribution (%ID/g) Blood ([1]; 24 h p.i.): 0.005 ± 0.001 %ID/g
- Biodistribution (%ID/g) Bone ([1]; 24 h p.i.): 0.026 ± 0.004 %ID/g
- Biodistribution (%ID/g) Fat ([1]; 24 h p.i.): 0.005 ± 0.002 %ID/g
- Biodistribution (%ID/g) Heart ([1]; 24 h p.i.): 0.009 ± 0.002 %ID/g
- Biodistribution (%ID/g) Kidney ([1]; 24 h p.i.): 0.077 ± 0.009 %ID/g
- Biodistribution (%ID/g) Large intestine ([1]; 24 h p.i.): 0.022 ± 0.008 %ID/g
- Biodistribution (%ID/g) Liver ([1]; 24 h p.i.): 0.018 ± 0.002 %ID/g
- Biodistribution (%ID/g) Lung ([1]; 24 h p.i.): 0.033 ± 0.004 %ID/g
- Biodistribution (%ID/g) Muscle ([1]; 24 h p.i.): 0.001 ± 0.000 %ID/g
- Biodistribution (%ID/g) Pancreas ([1]; 24 h p.i.): 0.003 ± 0.001 %ID/g
- Biodistribution (%ID/g) Small intestine ([1]; 24 h p.i.): 0.007 ± 0.001 %ID/g
- Biodistribution (%ID/g) Spleen ([1]; 24 h p.i.): 0.044 ± 0.005 %ID/g
- Biodistribution (%ID/g) Stomach ([1]; 24 h p.i.): 0.005 ± 0.002 %ID/g
- Biodistribution (%ID/g) Blood ([1]; 48 h p.i.): 0.004 ± 0.001 %ID/g
- Biodistribution (%ID/g) Bone ([1]; 48 h p.i.): 0.023 ± 0.004 %ID/g
- Biodistribution (%ID/g) Fat ([1]; 48 h p.i.): 0.002 ± 0.001 %ID/g
- Biodistribution (%ID/g) Heart ([1]; 48 h p.i.): 0.004 ± 0.002 %ID/g
- Biodistribution (%ID/g) Kidney ([1]; 48 h p.i.): 0.021 ± 0.003 %ID/g
- Biodistribution (%ID/g) Large intestine ([1]; 48 h p.i.): 0.003 ± 0.001 %ID/g
- Biodistribution (%ID/g) Liver ([1]; 48 h p.i.): 0.008 ± 0.001 %ID/g
- Biodistribution (%ID/g) Lung ([1]; 48 h p.i.): 0.015 ± 0.002 %ID/g
- Biodistribution (%ID/g) Muscle ([1]; 48 h p.i.): 0.001 ± 0.001 %ID/g
- Biodistribution (%ID/g) Pancreas ([1]; 48 h p.i.): 0.001 ± 0.001 %ID/g
- Biodistribution (%ID/g) Small intestine ([1]; 48 h p.i.): 0.002 ± 0.000 %ID/g
- Biodistribution (%ID/g) Spleen ([1]; 48 h p.i.): 0.024 ± 0.005 %ID/g
- Biodistribution (%ID/g) Stomach ([1]; 48 h p.i.): 0.001 ± 0.000 %ID/g
- fold less radioactivity associated with liver tissue compared to [^89Zr]Zr-DFO ([1]; 72 h p.i.): 9 fold
- fold less radioactivity in the bone tissue than [^89Zr]Zr-DFO ([1]; 72 h p.i.): 3 fold
- fold less radioactivity retained in the kidney than [^89Zr]Zr-DFO ([1]; 72 h p.i.): 69 fold
- Biodistribution (%ID/g) Blood ([1]; 72 h p.i.): 0.003 ± 0.001 %ID/g
- Biodistribution (%ID/g) Bone ([1]; 72 h p.i.): 0.023 ± 0.003 %ID/g
- Biodistribution (%ID/g) Fat ([1]; 72 h p.i.): 0.001 ± 0.001 %ID/g
- Biodistribution (%ID/g) Heart ([1]; 72 h p.i.): 0.004 ± 0.001 %ID/g
- Biodistribution (%ID/g) Kidney ([1]; 72 h p.i.): 0.010 ± 0.002 %ID/g
- Biodistribution (%ID/g) Large intestine ([1]; 72 h p.i.): 0.003 ± 0.001 %ID/g
- Biodistribution (%ID/g) Liver ([1]; 72 h p.i.): 0.007 ± 0.001 %ID/g
- Biodistribution (%ID/g) Lung ([1]; 72 h p.i.): 0.013 ± 0.003 %ID/g
- Biodistribution (%ID/g) Muscle ([1]; 72 h p.i.): 0.001 ± 0.001 %ID/g
- Biodistribution (%ID/g) Pancreas ([1]; 72 h p.i.): 0.001 ± 0.001 %ID/g
- Biodistribution (%ID/g) Small intestine ([1]; 72 h p.i.): 0.001 ± 0.000 %ID/g
- Biodistribution (%ID/g) Spleen ([1]; 72 h p.i.): 0.026 ± 0.002 %ID/g
- Biodistribution (%ID/g) Stomach ([1]; 72 h p.i.): 0.001 ± 0.000 %ID/g
- % Intact of [^89Zr]Zr-DOTMA (n = 3) Radio-ITLC ([2]; 0 h): ≥99.99%
- % Intact of [^89Zr]Zr-DOTMA (n = 3) Radio-SE-HPLC ([2]; 0 h): ≥99.99%
- % Intact of [^89Zr]Zr-DOTMA (n = 3) Radio-ITLC ([2]; 1 d): ≥99.99%
- % Intact of [^89Zr]Zr-DOTMA (n = 3) Radio-SE-HPLC ([2]; 1 d): ≥99.99%
- % Intact of [^89Zr]Zr-DOTMA (n = 3) Radio-ITLC ([2]; 3 d): ≥99.99%
- % Intact of [^89Zr]Zr-DOTMA (n = 3) Radio-SE-HPLC ([2]; 3 d): ≥99.99%
- % Intact of [^89Zr]Zr-DOTMA (n = 3) Radio-ITLC ([2]; 5 d): ≥99.99%
- % Intact of [^89Zr]Zr-DOTMA (n = 3) Radio-SE-HPLC ([2]; 5 d): ≥99.99%
- % Intact of [^89Zr]Zr-DOTMA (n = 3) Radio-ITLC ([2]; 7 d): ≥99.99%
- % Intact of [^89Zr]Zr-DOTMA (n = 3) Radio-SE-HPLC ([2]; 7 d): 99.9 ± 0.1%
- association of ^89Zr with serum proteins (in words) ([2]; incubation in human serum, seven-day time course): not associated with the serum proteins
